In brackets after ≈: the same amount, converted by molar mass. Read-outs that look alike come from different tables or passages of the source.

This is an account of results in US20080200404A1, “Novel Antimalarial 9A-Carbamoyl-Aminoalkyl and 9A-Thiocarbamoyl-Aminoalkyl Azalides” (priority 2005, published 2008).

Assay type in all cases: cell-based
In assay [1] the test system is Plasmodium falciparum clone CDC/Indochina III (W-2). In words: In vitro antimalarial [3H]-hypoxanthine incorporation serial dilution assay, W2. The conditions noted are these: P. falciparum W2, 72 hours exposure; for IC50: Plasmodium falciparum. From the text:
(§1) The in vitro screens for intrinsic antimalarial activity were based on modifications of the procedures described by Desjardins R E, Canfield C J, Haynes J D, Chulay J D. (Quantitative assessment of antimalarial activity in vitro by a semiautomated microdilution technique. Antimicrob Agents Chemother. 1979 December; 16(6):710-8.), Chulay J D, Haynes J D, Diggs C L. (Plasmodium falciparum: Assessment of in vitro growth by [3H]hypoxanthine incorporation. Exp. Parasitol. 1983 55:138-146.), and Milhous W K, Weatherly N F, Bowdre J H, Desjardins R E. (In vitro activities of and mechanisms of resistance to antifol antimalarial drugs. Antimicrob Agents Chemother. 1985 April; 27(4):525-30.). The system was limited to the assessment of the intrinsic activity against the erythrocytic asexual life cycle (blood schizontocides). Two Plasmodium falciparum clones from CDC/Indochina III (W-2) and CDC/Sierra Leone I (D-6) (Oduola A M, Weatherly N F, Bowdre J H, Desjardins R E. Plasmodium falciparum: cloning by single-erythrocyte micromanipulation and heterogeneity in vitro. Exp Parasitol. 1988 66(1):86-95.) were used for all assays. TM91C235, a multiple drug resistant isolate from Thailand, was used for the prescreening assay. W-2 is resistant to chloroquine, quinine, and pyrimethamine and susceptible to mefloquine. D-6 tends to be more resistant to mefloquine and susceptible to chloroquine, quinine, and pyrimethamine. All documents cited in this paragraph are incorporated by reference in their entirety.
(§2) All parasites were maintained in continuous long term cultures in RPMI-1640 medium supplemented with 6% washed human A positive (A+)(erythrocytes, 25 mM Hepes, […], and 10% heat inactivated A+human plasma or ALBUMAX® (lipid-rich bovine serum albumin; Invitrogen, Carlsbad, Calif.). All cultures and assays were conducted at 37° C. under an atmosphere of 5% CO2 and 5% O2, with a balance of N2.
(§3) After the preincubation, [^3H]-hypoxanthine was added to each well of the MTP. (The assay relies on the incorporation of radiolabeled hypoxanthine by the parasites, which indicates reproduction, and inhibition of isotope incorporation was attributed to activity of known or candidate antimalarial drugs). After 72 hr of total incubation time, the MTP were frozen to lyse the erythrocytes and parasites. The parasite DNA was recovered by harvesting the lysate onto glass-fiber filter plates using a Packard FilterMate™ Cell Harvester. The radioactivity was counted on a Packard TopCount™ microplate scintillation counter. The results were recorded as counts per minutes (CPM) per well at each drug concentration divided by the arithmetic mean of the CPM from the three untreated infection parasite control wells.
(§4) The serial dilution assay was conducted using the same assay conditions and stock solution of the compound used for the preliminary screen, described above. Both the D-6 and the W-2 clones were used. The compounds were diluted two-fold over 11 different concentration ranges with a starting concentration that was based on the preliminary screen. For each drug, the concentration response profile was determined and 50% inhibitory concentrations (IC50) were determined by using a non-linear, logistic dose response analysis program. […] For each assay, the IC50 for each clone was determined against the known antimalarials chloroquine and mefloquine. These control values established the compound's relative parasite susceptibility profile compared to known antimalarials. […]
(§5) The in vitro potency of the compounds has been compared with that of azithromycin to better gauge compounds suitable for further testing. As described above, parasites were exposed for 72 hours. Data from the in vitro potency tests of azithromycin against the three parasite strains have been averaged, and these numbers have been used for identification of “active” macrolide compounds.

Assay [2] concerns Plasmodium falciparum TM91C235. As to the kind of experiment: In vitro antimalarial [3H]-hypoxanthine incorporation assay, TM91C235. To be noted: P. falciparum TM91C235 (multiple drug resistant isolate), 72 hours exposure; for IC50: Plasmodium falciparum.
Text: as §1, §2
The prescreening assay uses TM91C235 diluted at a 0.4% parasitemia in a 1% hematocrit in folic acid free and p-aminobenzoic acid free media RPMI-1640 and ALBUMAX®. One mg of the compound is typically dissolved in 100 μl of dimethyl sulfoxide (DMSO). The compound is further diluted in culture medium (FF) with ALBUMAX® for the first initial starting concentration. The rest of the stock drug solution was kept at −70° C. The isolate was preexposed, in duplicate, at three concentrations (25,000 ng/ml, 2,500 ng/ml, and 25 ng/ml) of the test compound for 48 hr in a 96-well microtiter plate (MTP) using the BIOMEK® 2000 automated laboratory workstation. Each MTP contains chloroquine as control to assess the relative activity of the compound and to monitor the response of TM91C235.
as §3
The serial dilution assay was conducted using the same assay conditions and stock solution of the compound used for the preliminary screen, described above. Both the D-6 and the W-2 clones were used. The compounds were diluted two-fold over 11 different concentration ranges with a starting concentration that was based on the preliminary screen. […]

In assay [3] the test system is Plasmodium falciparum clone CDC/Sierra Leone I (D-6). As to the kind of experiment: In vitro antimalarial [3H]-hypoxanthine incorporation serial dilution assay, D6. To be noted: P. falciparum D6, 72 hours exposure; for IC50: Plasmodium falciparum, D6, 72 h.
Text: as §1, §2, §3, §4, §5

With `CC[C@H]1OC(=O)[C@H](C)[C@@H](O[C@H]2C[C@@](C)(OC)[C@@H](O)[C@H](C)O2)[C@H](C)[C@@H](O[C@@H]2O[C@H](C)C[C@H](N(C)C)[C@H]2O)[C@](C)(O)C[C@@H](C)CN(CCCNC(=O)NC2CCN(C(=O)OCc3ccccc3)CC2)[C@H](C)[C@@H](O)[C@]1(C)O.O=CO` [Example 91], the IC50 (usually the midpoint of a concentration-inhibition curve) in assay [1] worked out at 0.303 µg/mL; in assay [2], 0.259 µg/mL; in assay [3] (read-out: IC50 D6), 0.698 µg/mL.
Regarding `CC[C@H]1OC(=O)[C@H](C)[C@@H](O[C@H]2C[C@@](C)(OC)[C@@H](O)[C@H](C)O2)[C@H](C)[C@@H](O[C@@H]2O[C@H](C)C[C@H](N(C)C)[C@H]2O)[C@](C)(O)C[C@@H](C)CN(CCCNC(=S)N[C@H]2CCCC[C@@H]2OCc2ccccc2)[C@H](C)[C@@H](O)[C@]1(C)O.O=CO` [Example 123], the IC50 in assay [1] is 0.297 µg/mL; in assay [2] it was 0.137 µg/mL; in assay [3] (read-out: IC50 D6) it was 0.7 µg/mL.
Consider `CC[C@H]1OC(=O)[C@H](C)[C@@H](O[C@H]2C[C@@](C)(OC)[C@@H](O)[C@H](C)O2)[C@H](C)[C@@H](O[C@@H]2O[C@H](C)C[C@H](N(C)C)[C@H]2O)[C@](C)(O)C[C@@H](C)CN(CCCNC(=S)Nc2ccccc2F)[C@H](C)[C@@H](O)[C@]1(C)O.O=CO` [Example 136], for which the IC50 in assay [1] amounted to 0.396 µg/mL; in assay [2], 0.121 µg/mL; in assay [3] (read-out: IC50 D6), 0.978 µg/mL.
As for `CC[C@H]1OC(=O)[C@H](C)[C@@H](O[C@H]2C[C@@](C)(OC)[C@@H](O)[C@H](C)O2)[C@H](C)[C@@H](O[C@@H]2O[C@H](C)C[C@H](N(C)C)[C@H]2O)[C@](C)(O)C[C@@H](C)CN(CCCNC(=S)Nc2c(F)cccc2F)[C@H](C)[C@@H](O)[C@]1(C)O` [Example 104], the figures for the IC50 in assay [1], in assay [2] and in assay [3] (read-out: IC50 D6) were 0.0831 µg/mL (≈ 0.0863 µM), 0.181 µg/mL (≈ 0.188 µM) and 0.49 µg/mL (≈ 0.509 µM), respectively.
Take `CC[C@H]1OC(=O)[C@H](C)[C@@H](O[C@H]2C[C@@](C)(OC)[C@@H](O)[C@H](C)O2)[C@H](C)[C@@H](O[C@@H]2O[C@H](C)C[C@H](N(C)C)[C@H]2O)[C@](C)(O)C[C@@H](C)CN(CCCNC(=S)Nc2ccc(N(C)C)c3ccccc23)[C@H](C)[C@@H](O)[C@]1(C)O.O=CO` [Example 142]: the figures for the IC50 in assay [1], in assay [2] and in assay [3] (read-out: IC50 D6) were 0.186 µg/mL, 0.192 µg/mL and 0.348 µg/mL, respectively.
On the same counts, the results for `CCOC(=O)c1ccc(NC(=S)NCCCN2C[C@H](C)C[C@@](C)(O)[C@H](O[C@@H]3O[C@H](C)C[C@H](N(C)C)[C@H]3O)[C@@H](C)[C@H](O[C@H]3C[C@@](C)(OC)[C@@H](O)[C@H](C)O3)[C@@H](C)C(=O)O[C@H](CC)[C@@](C)(O)[C@H](O)[C@H]2C)cc1` [Example 112] are 0.0709 µg/mL (≈ 0.0709 µM), 0.107 µg/mL (≈ 0.107 µM) and 0.121 µg/mL (≈ 0.121 µM).
`CC[C@H]1OC(=O)[C@H](C)[C@@H](O[C@H]2C[C@@](C)(OC)[C@@H](O)[C@H](C)O2)[C@H](C)[C@@H](O[C@@H]2O[C@H](C)C[C@H](N(C)C)[C@H]2O)[C@](C)(O)C[C@@H](C)CN(CCCNC(=S)NC23CC4CC(CC(C4)C2)C3)[C@H](C)[C@@H](O)[C@]1(C)O` [Example 130]: the values for the half-maximal inhibitory concentration (IC50) in assay [1], in assay [2] and in assay [3] (read-out: IC50 D6) were 0.207 µg/mL (≈ 0.21 µM), 0.15 µg/mL (≈ 0.152 µM) and 0.545 µg/mL (≈ 0.553 µM), respectively.
Consider `CC[C@H]1OC(=O)[C@H](C)[C@@H](O[C@H]2C[C@@](C)(OC)[C@@H](O)[C@H](C)O2)[C@H](C)[C@@H](O[C@@H]2O[C@H](C)C[C@H](N(C)C)[C@H]2O)[C@](C)(O)C[C@@H](C)CN(CCCNC(=S)Nc2cc(F)ccc2C)[C@H](C)[C@@H](O)[C@]1(C)O` [Example 62], for which the 50% inhibitory concentration (IC50) in assay [1] is 0.0502 µg/mL (≈ 0.0523 µM); in assay [2], 0.11 µg/mL (≈ 0.115 µM); in assay [3] (read-out: IC50 D6), 0.373 µg/mL (≈ 0.389 µM).
For the molecule `CC[C@H]1OC(=O)[C@H](C)[C@@H](O[C@H]2C[C@@](C)(OC)[C@@H](O)[C@H](C)O2)[C@H](C)[C@@H](O[C@@H]2O[C@H](C)C[C@H](N(C)C)[C@H]2O)[C@](C)(O)C[C@@H](C)CN(CCCN(CCC(N)=O)C(=O)Nc2ccc(Cl)cc2Cl)[C@H](C)[C@@H](O)[C@]1(C)O` [Example 169, 9-Deoxo-9-dihydro-9a-[N′-(β-amidoethyl)-N′-(2,4-dichlorophenyl)carbamoyl-γ-aminopropyl]-9a-aza-9a-homoerythromycin A], the “IC50 W2” value in assay [1] came out at 0.188 µg/mL (≈ 0.179 µM). Besides, the “IC50 TM91C235” value in assay [2] was found to be 0.1475 µg/mL (≈ 0.14 µM). The “IC50 D6” value in assay [3] stood at 0.2266 µg/mL (≈ 0.216 µM).
With `CC[C@H]1OC(=O)[C@H](C)[C@@H](O[C@H]2C[C@@](C)(OC)[C@@H](O)[C@H](C)O2)[C@H](C)[C@@H](O[C@@H]2O[C@H](C)C[C@H](N(C)C)[C@H]2O)[C@](C)(O)C[C@@H](C)CN(CCCNC(=O)NCc2ccco2)[C@H](C)[C@@H](O)[C@]1(C)O` [Example 57], the IC50 in assay [1] was 0.263 µg/mL (≈ 0.287 µM); in assay [2] it was 0.454 µg/mL (≈ 0.496 µM); in assay [3] (compared with azithromycin, read-out: IC50 D6 (class symbol)), > 0.797 µg/mL.
Turning to `CC[C@H]1OC(=O)[C@H](C)[C@@H](O[C@H]2C[C@@](C)(OC)[C@@H](O)[C@H](C)O2)[C@H](C)[C@@H](O[C@@H]2O[C@H](C)C[C@H](N(C)C)[C@H]2O)[C@](C)(O)C[C@@H](C)CN(CCNC(=O)NC(C)C)[C@H](C)[C@@H](O)[C@]1(C)O` [Example 1, 9-Deoxo-9-dihydro-9a-(N′-isopropylcarbamoyl-β-aminoethyl)-9a-aza-9a-homoerythromycin A], the “IC50 W2” value in assay [1] came to 1.777 µg/mL (≈ 2.06 µM). Further, the “IC50 TM91C235” value in assay [2] is 0.6191 µg/mL (≈ 0.717 µM).
As to `CC[C@H]1OC(=O)[C@H](C)[C@@H](O[C@H]2C[C@@](C)(OC)[C@@H](O)[C@H](C)O2)[C@H](C)[C@@H](O[C@@H]2O[C@H](C)C[C@H](N(C)C)[C@H]2O)[C@](C)(O)C[C@@H](C)CN(CCCNC(=O)Nc2ccc(C)cc2C)[C@H](C)[C@@H](O)[C@]1(C)O.O=CO` [Example 75], the half-inhibitory concentration (IC50) in assay [2] was 0.229 µg/mL; in assay [3] (read-out: IC50 D6), 0.479 µg/mL.
As to `CC[C@H]1OC(=O)[C@H](C)[C@@H](O[C@H]2C[C@@](C)(OC)[C@@H](O)[C@H](C)O2)[C@H](C)[C@@H](O[C@@H]2O[C@H](C)C[C@H](N(C)C)[C@H]2O)[C@](C)(O)C[C@@H](C)CN(CCCN(CCC(N)=O)C(=S)NCCCc2ccccc2)[C@H](C)[C@@H](O)[C@]1(C)O` [Example 167, 9-Deoxo-9-dihydro-9a-{N′-(β-amidoethyl)-N′-[γ-(phenylpropyl)thiocarbamoyl]-γ-aminopropyl}-9a-aza-9a-homoerythromycin A], the IC50 amounted to 0.0572 µg/mL (≈ 0.055 µM) in assay [2] and 0.127 µg/mL (≈ 0.122 µM) in assay [3] (read-out: IC50 D6).
Turning to `CC[C@H]1OC(=O)[C@H](C)[C@@H](O[C@H]2C[C@@](C)(OC)[C@@H](O)[C@H](C)O2)[C@H](C)[C@@H](O[C@@H]2O[C@H](C)C[C@H](N(C)C)[C@H]2O)[C@](C)(O)C[C@@H](C)CN(CCCNC(=S)Nc2ccc(/N=N/c3ccccc3)cc2)[C@H](C)[C@@H](O)[C@]1(C)O` [Example 118], the IC50 turned out to be 0.0993 µg/mL (≈ 0.0963 µM) in assay [2] and 0.111 µg/mL (≈ 0.107 µM) in assay [3] (read-out: IC50 D6).
